Assay [1] has as its system PC-3. The assay can be described thus: Anticancer activity against human PC-3 cells assessed as inhibition of cell proliferation measured after 72 hrs by MTT assay. The format is functional, cell-based. The settings on record: PC-3, 72 h. In general terms: Formazan colour is commonly taken as a measure of viable cells.
The subject of the next assay is HepG2. Description: Anticancer activity against human HepG2 cells assessed as inhibition of cell proliferation measured after 72 hrs by MTT assay. The class given is functional, cell-based. The settings on record: HepG2, 72 h.
Assay [2] concerns WiDr. Description: Anticancer activity against human WiDr cells assessed as inhibition of cell proliferation measured after 72 hrs by MTT assay. The class given is functional, cell-based.
A further assay deals with NCI-H1299. Description: Anticancer activity against human H1299 cells assessed as inhibition of cell proliferation measured after 72 hrs by MTT assay. The format is functional, cell-based. The settings on record: NCI-H1299, 72 h.
Assay [3] relates to PC-3. Description: Cytotoxicity against human PC-3 cells assessed as cell viability measured after 72 hrs by MTS assay. The class given is functional, cell-based. The settings on record: PC-3, 72 h.
Assay [4] concerns PC-3. Description: Induction of cell cycle arrest in human PC-3 cells assessed as pre-G0/G1 phase at 40 uM measured after 72 hrs by propidium iodide based assay relative to control. The format is functional.
Assay [5] deals with WiDr. Description: Induction of mitochondrial membrane potential loss in human WiDr cells at IC50 concentration after 72 hrs by flow cytometry. The format is functional, cell-based. (In general: In flow cytometry, cells or beads pass a laser one at a time.)
Assay [6] concerns PC-3. The assay can be described thus: Induction of apoptosis in human PC-3 cells assessed as apoptotic cells at 50 uM measured after 72 hrs by annexin-V and propidium iodide staining based flow cytometry analysis. The format is functional.
For assay [7], the system named is PC-3. Description: Induction of oxidative stress in human PC-3 cells assessed as increase in peroxide level at 15 uM incubated for 24 hrs by DCFH2 based green fluorescence assay. The format is functional, cell-based.
Assay [8] relates to PC-3. The assay can be described thus: Induction of apoptosis in human PC-3 cells assessed as fold increase in BAX/BCL-2 ratio at 50 uM measured after 72 hrs relative to control. The class given is functional.
Assay [9] has as its system WiDr. Description: Induction of oxidative stress in human WiDr cells assessed as increase in peroxide level at IC50 concentration incubated for 24 hrs by DCFH2 based green fluorescence assay. The format is functional, cell-based.
The subject of assay [10] is WiDr. The assay can be described thus: Induction of cell cycle arrest in human WiDr cells assessed as pre-G0/G1 phase at 40 uM measured after 72 hrs by propidium iodide based assay relative to control. The format is functional.
Assay [11] deals with WiDr. Description: Induction of oxidative stress in human WiDr cells assessed as increase in superoxide anion level at 15 uM incubated for 24 hrs by DHE based red fluorescence assay. The format is functional, cell-based.
Assay [12] relates to PC-3. Description: Effect on GSH expression in human PC-3 cells incubated for 24 hrs by mercury orange based red fluorescence assay. The class given is functional, cell-based.
The test system of assay [13] is PC-3. The assay can be described thus: Induction of oxidative stress in human PC-3 cells assessed as increase in superoxide anion level at IC50 concentration incubated for 24 hrs by DHE based red fluorescence assay. The class given is functional, cell-based.
The test system of assay [14] is WiDr. Description: Induction of oxidative stress in human WiDr cells assessed as increase in superoxide anion level at IC50 concentration incubated for 24 hrs by DHE based red fluorescence assay. The class given is functional, cell-based.
Assay [15] deals with WiDr. The assay can be described thus: Effect on GSH expression in human WiDr cells incubated for 24 hrs by mercury orange based red fluorescence assay. The class given is functional, cell-based.
The subject of assay [16] is PC-3. The assay can be described thus: Induction of apoptosis in human PC-3 cells assessed as apoptotic cells at IC50 concentration measured after 72 hrs by annexin-V and propidium iodide staining based flow cytometry analysis. The format is functional.
For assay [17], the system named is PC-3. The assay can be described thus: Induction of oxidative stress in human PC-3 cells assessed as increase in peroxide level at IC50 concentration incubated for 24 hrs by DCFH2 based green fluorescence assay. The format is functional, cell-based.
Assay [18] relates to WiDr. The assay can be described thus: Antiproliferative activity aginst human WiDr cells assessed as reduction in cell viability at IC50 concentration measured after 72 hrs by annexin -V and propidium iodide staining based flow cytometry analysis. The class given is functional.
Assay [19] concerns PC-3. Description: Induction of mitochondrial membrane potential loss in human PC-3 cells at 50 uM after 72 hrs by flow cytometry. The format is functional.
Assay [20] relates to PC-3. Description: Antiproliferative activity against human PC-3 cells assessed as reduction in cell viability at IC50 concentration measured after 72 hrs by Annexin-V and propidium iodide staining based flow cytometry analysis. The class given is functional.
Assay [21] deals with PC-3. The assay can be described thus: Induction of oxidative stress in human PC-3 cells assessed as increase in superoxide anion level at 15 uM incubated for 24 hrs by DHE based red fluorescence assay. The class given is functional, cell-based.
Assay [22] concerns WiDr. Description: Induction of oxidative stress in human WiDr cells assessed as increase in peroxide level at 15 uM incubated for 24 hrs by DCFH2 based green fluorescence assay. The class given is functional, cell-based.
Assay [23] deals with PC-3. Description: Induction of mitochondrial membrane potential loss in human PC-3 cells at IC50 concentration after 72 hrs by flow cytometry. The format is functional, cell-based.
Assay [24] has as its system WiDr. The assay can be described thus: Induction of apoptosis in human WiDr cells assessed as late apoptotic/necrotic cells at 50 uM measured after 72 hrs by annexin-V and propidium iodide staining based flow cytometry analysis. The format is functional, cell-based.
A further assay relates to CCD-841CoN. Description: Anticancer activity against human CCD841 CoN cells assessed as inhibition of cell proliferation measured after 72 hrs by MTT assay. The format is cell-based.
Assay [25] has as its system PC-3. Description: Induction of apoptosis in human PC-3 cells assessed as increase in BAX/BCL-2 ratio at IC50 concentration measured after 72 hrs. The class given is functional, cell-based.
In assay [26] the test system is PC-3. The assay can be described thus: Induction of cell cycle arrest in human PC-3 cells assessed as G0/G1 phase measured after 72 hrs by cell cycle analysis relative to control. The format is functional.
The test system of assay [27] is WiDr. The assay can be described thus: Induction of cell cycle arrest in human WiDr cells assessed as G2/M phase at 40 uM measured after 72 hrs by propidium iodide based assay relative to control. The format is functional.
The test system of assay [28] is WiDr. The assay can be described thus: Induction of apoptosis in human WiDr cells assessed as increase in BAX/BCL-2 ratio at IC50 concentration measured after 72 hrs. The class given is functional, cell-based.
Assay [29] deals with PC-3. The assay can be described thus: Induction of apoptosis in human PC-3 cells assessed as late apoptotic/necrotic cells at 50 uM measured after 72 hrs by annexin-V and propidium iodide staining based flow cytometry analysis. The class given is functional.
Assay [30] deals with PC-3. Description: Induction of apoptosis in human PC-3 cells assessed as necrotic cells at IC50 concentration measured after 72 hrs by annexin-V and propidium iodide staining based flow cytometry analysis. The class given is functional.

Active and inactive are the calls of the source. The rule behind the calls is not given here. A value given as a limit tells only on which side of the number the result lay.

In the case of `C[C@]12CC[C@H]3O[C@H]3[C@@H]1CC[C@@H]1[C@@H]2CC[C@]2(C)C(=O)CC[C@@H]12`, the IC50 (in general, the concentration needed to halve the response being measured) amounted to 46.8 µM in the assay with PC-3 [1], 32.6 µM in the assay with HepG2 and 60.9 µM in the assay on WiDr [2].

In the case of `CCc1c2c(nc3ccc(OC(=O)N4CCC(N5CCCCC5)CC4)cc13)-c1cc3c(c(=O)n1C2)COC(=O)[C@]3(O)CC` [IRINOTECAN], the IC50 with WiDr [2] amounted to 13.9 µM.

Turning to `C[C@]12CCCC=C1CC[C@@H]1[C@@H]2CC[C@]2(C)C(=O)CC[C@@H]12`, the IC50 in the assay on PC-3 [1] turned out to be 21.5 µM; with HepG2 it was 17.7 µM; in the assay on WiDr [2] it was 28 µM; with NCI-H1299, 21.5 µM.

Take `O=c1[nH]cc(F)c(=O)[nH]1` [FLUOROURACIL]: the IC50 with HepG2 turned out to be 19 µM; in the assay with WiDr [2], 10.5 µM.

For the compound `C[C@]12CC[C@H]3[C@@H](CC[C@@]45O[C@@H]4CCC[C@]35C)[C@@H]1CC/C2=N\O`, the IC50 with HepG2 turned out to be 52.7 µM; in the assay with WiDr [2] it was 53.4 µM.

As for `C[C@]12CCC=C[C@@H]1CC[C@@H]1[C@@H]2CC[C@]2(C)C(=O)CC[C@@H]12`, the concentration for half-maximal inhibition (IC50) in the assay on PC-3 [1] was 23.1 µM; with HepG2 it was 15 µM.

Take `C[C@]12CC[C@H]3O[C@H]3[C@@H]1CC[C@@H]1[C@@H]2CC[C@]2(C)/C(=N/O)CC[C@@H]12`: the IC50 with PC-3 [1] was found to be 77.9 µM; in the assay with HepG2 it was 64.3 µM; with WiDr [2], 75 µM.

As to `CC(C)CCC[C@@H](C)[C@H]1CC[C@H]2[C@@H]3C/C(=N\O)C4C[C@@H](O)CC[C@]4(C)[C@H]3CC[C@]12C` (some centres not stated), the IC50 in the assay with PC-3 [3] came to 49.8 µM.

Regarding `COc1cc([C@@H]2c3cc4c(cc3[C@@H](O[C@@H]3O[C@@H]5CO[C@@H](C)O[C@H]5[C@H](O)[C@H]3O)[C@H]3COC(=O)[C@H]23)OCO4)cc(OC)c1O` [ETOPOSIDE], in the assay on NCI-H1299, the IC50 turned out to be 230 µM.

Regarding `C[C@]12CCCC=C1CC[C@@H]1[C@@H]2CC[C@]2(C)/C(=N/O)CC[C@@H]12`, the result in the assay with PC-3 [4], in the assay with WiDr [5], in the assay with PC-3 [7], in the assay with WiDr [9], in the assay with WiDr [10] and with WiDr [11] was Active. The outcome with PC-3 [13], with WiDr [14], with PC-3 [17], in the assay on PC-3 [21], in the assay on WiDr [22] and in the assay on PC-3 [23] was Active. In addition, in the assay on WiDr [24], the result was Active. For the same compound, the Activity is 32.37% in the assay with PC-3 [6], 6.25% with PC-3 [16], 38.67% in the assay with WiDr [18] and 75.46% in the assay with PC-3 [20]. In addition, the IC50 in the assay with PC-3 [1] was 14.5 µM; in the assay with HepG2, 18.2 µM; with WiDr [2], 16.1 µM; in the assay on NCI-H1299, 19.2 µM; with CCD-841CoN, greater than 75 µM. Also, the “fold change (FC)” value in the assay with PC-3 [8] is 1.51; in the assay on PC-3 [19] it was 3.66. Further, the result in the assay with PC-3 [12] and in the assay on WiDr [15] was inactive.

As for `C[C@]12CCC=C[C@@H]1CC[C@@H]1[C@@H]2CC[C@]2(C)/C(=N/O)CC[C@@H]12`, the outcome in the assay on PC-3 [25], in the assay on PC-3 [4], in the assay with WiDr [5], in the assay on PC-3 [7], with WiDr [9] and in the assay on WiDr [10] was Active. Also, the result in the assay on WiDr [27], with WiDr [11], with PC-3 [13], in the assay with WiDr [28], with WiDr [14] and in the assay on PC-3 [17] was Active. The result with PC-3 [21], in the assay with WiDr [22] and with PC-3 [23] was Active. Further, the IC50 worked out at 13.8 µM in the assay with PC-3 [1]; 23.9 µM in the assay on HepG2; 9.1 µM with WiDr [2]; 18.6 µM in the assay on NCI-H1299; 31.7 µM with CCD-841CoN. The Activity with PC-3 [26] was 9.66%; in the assay with WiDr [18], 47.67%; in the assay with PC-3 [29] it was 18.01%; with PC-3 [20], 72.74%; in the assay with PC-3 [30], 49.94%. Moreover, the outcome in the assay on PC-3 [12] and in the assay with WiDr [15] was inactive.

For the compound `CC(C)C(=O)Nc1ccc([N+](=O)[O-])c(C(F)(F)F)c1` [FLUTAMIDE], the IC50 in the assay on PC-3 [1] is 58 µM; with NCI-H1299, greater than 500 µM.

As for `C[C@]12CC[C@H]3[C@@H](CC[C@@]45O[C@@H]4CCC[C@]35C)[C@@H]1CCC2=O`, the IC50 came to 62.1 µM with PC-3 [1], 42.4 µM in the assay with HepG2 and 59.1 µM with WiDr [2].

These data come from ChEMBL document CHEMBL4825751, “Design, synthesis, and antitumor activity evaluation of steroidal oximes” (Bioorg Med Chem, 2021).
